Results published in patent US12679878B2, “CRF2 receptor agonists and their use in therapy” (SANOFI, priority 2020, dated 2026).
Read-outs that look alike come from different tables or passages of the source. Starred links: 1 amine or outer side, 2 acyl side, 3 side chain; linkers in the order of their positions; H or OH if unused. Non-standard residues stand in square brackets, D forms with d. Residues, ends and D or L forms follow the SMILES beside them. Groups on a side chain read outwards from the residue. *: point of attachment. C18 diacid = O=C(O)CCCCCCCCCCCCCCCCC(=O)*; γGlu = O=C(O)[C@H](CCC(=O)[*:2])N[*:1]; Palmitoyl = CCCCCCCCCCCCCCCC(=O)*; AEEA = NCCOCCOCC(=O)O; Aib = CC(C)(N)C(=O)O

How the values were obtained:
human CRF2α receptor = biological target: T1, human CRF2α receptor (Homo sapiens, UniProt Q13324); experiment: cAMP agonism at human CRF2 α receptor in TeloHEAC cells (Example 7); assay type: cell-based; conditions: cAMP HTRF, TeloHEAC cells stably expressing human CRF2 α
T1 construct: expressed in transfected cells; host or cells: TeloHEAC
T1 sequence (Q13324 1-411): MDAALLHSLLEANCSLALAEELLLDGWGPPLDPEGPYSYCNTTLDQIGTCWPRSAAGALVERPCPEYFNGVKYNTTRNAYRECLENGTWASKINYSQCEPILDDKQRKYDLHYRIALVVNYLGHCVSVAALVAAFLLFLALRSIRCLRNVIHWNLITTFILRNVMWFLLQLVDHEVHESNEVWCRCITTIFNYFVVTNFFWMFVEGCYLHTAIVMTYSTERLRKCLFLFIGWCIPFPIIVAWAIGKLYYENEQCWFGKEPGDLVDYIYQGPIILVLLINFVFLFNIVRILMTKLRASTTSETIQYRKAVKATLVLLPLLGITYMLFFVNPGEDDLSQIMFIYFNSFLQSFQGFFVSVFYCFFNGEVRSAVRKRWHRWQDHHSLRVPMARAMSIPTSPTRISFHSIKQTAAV
In short: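 Cryopreserved cells are thawed, washed and resuspended in IBMX-containing (2 mM) HEPES-buffered HBSS with or without 0.1% HSA. Compound incubation runs 30 min at room temperature with 2000 cells per well, then cAMP is measured by time-resolved FRET. Potency is expressed as EC50, efficacy relative to urocortin 2 at 1000 nM.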

CRF1R receptor = biological target: T2, CRF1R receptor (Homo sapiens, UniProt P34998); experiment: cAMP activity at anti-target CRF1R, CHO-K1 cell line clone 2 (Example 19.10); assay type: cell-based; conditions: CRF1R CHO-K1 clone 2; for EC50: 0% HSA, read-out: EC50 [nM] 0% HSA; for Emax: 100% = Sauvagine at 100 nM
T2 construct: host or cells: CHO-K1 clone 2
T2 sequence (P34998 24-415): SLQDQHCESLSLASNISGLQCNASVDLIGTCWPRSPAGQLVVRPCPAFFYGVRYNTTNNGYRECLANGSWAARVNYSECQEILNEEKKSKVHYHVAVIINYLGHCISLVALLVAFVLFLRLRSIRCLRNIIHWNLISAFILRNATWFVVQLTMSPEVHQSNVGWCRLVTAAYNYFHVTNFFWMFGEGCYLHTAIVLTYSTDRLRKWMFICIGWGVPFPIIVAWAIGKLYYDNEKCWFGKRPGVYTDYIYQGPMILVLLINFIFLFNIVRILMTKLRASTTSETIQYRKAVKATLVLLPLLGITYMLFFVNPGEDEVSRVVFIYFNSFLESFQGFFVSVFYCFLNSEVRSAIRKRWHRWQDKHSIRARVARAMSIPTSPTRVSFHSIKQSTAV
Protocol: The CRF1R-overexpression CHO-K1 cell line clone 2 was purchased from PerkinElmer.
Cells were grown in a 10 cm dish at 37° C./5% CO2 in medium (F12 (Hams)/10% FBS/400 μg/ml G418) to near confluence. At that stage, cells were harvested, resuspended to 10 million/mL in culture medium without G418 and with 10% DMSO. 1 mL vial aliquots were slowly frozen to -80° C. in isopropanol and then transferred in liquid nitrogen for storage. These vials were used to run the experiment following the procedure reported 10 in the previous paragraph, except for the compound used in the control well to define the 100% activation (Sauvagine at 100 nM)

[1] = 0% HSA, read-out: EC50 [nM], 0% HSA

Structure (SMILES) | EC50 (human CRF2α receptor; [1]) [nM] | EC50 (CRF1R receptor) [nM] | Emax (CRF1R receptor) [%] | EC50 (human CRF2α receptor; 0.1% HSA, read-out: EC50 [nM], 0.1% HSA) [nM]
CCCCCCCCCCCCCCCC(=O)N[C@@H](CCC(=O)NCCCC[C@H](NC(=O)[C@H](CC(C)C)NC(=O)[C@H](CCCCN)NC(=O)[C@@H](NC(=O)[C@@H]1CCCN1C(=O)[C@H](NC(=O)[C@H](CC(=O)O)NC(=O)[C@H](CC(C)C)NC(=O)[C@H](CO)NC(=O)[C@H](CC(C)C)NC(=O)[C@@H](NC(=O)[C@@H](N)[C@@H](C)CC)C(C)C)C(C)C)[C@@H](C)O)C(=O)N[C@@H](CCCCN)C(=O)N[C@@H](CCCCN)C(=O)N[C@@H](CC(C)C)C(=O)N[C@@H](CC(C)C)C(=O)N[C@@H](CCCCN)C(=O)N[C@@H](CCC(N)=O)C(=O)N[C@@H](CCC(=O)O)C(=O)N[C@@H](CCCNC(=N)N)C(=O)N[C@@H](CCCCN)C(=O)N[C@@H](CCCNC(=N)N)C(=O)N[C@@H](CCCCN)C(=O)N[C@@H](CCC(=O)O)C(=O)N[C@@H](CCCNC(=N)N)C(=O)N[C@@H](CCC(=O)O)C(=O)N[C@@H](CCC(N)=O)C(=O)N[C@@H](C)C(=O)N[C@@H](CCC(=O)O)C(=O)N[C@@H](CCCCN)C(=O)N[C@@H](CC(N)=O)C(=O)N[C@@H](C)C(=O)N[C@@H](CCCNC(=N)N)C(=O)N[C@H](C(=O)N[C@@H](CC(C)C)C(=O)N[C@@H](CCC(=O)O)C(=O)N[C@@H](CCCNC(=N)N)C(=O)N[C@H](C(N)=O)C(C)C)[C@@H](C)CC)C(=O)O [compound 27] (H-IVLSLD[dV]PTKLK([γGlu-Palmitoyl])KKLLKQERKRKEREQAEKNARILERV-NH2; N-terminus assumed) | 0.01 | > 100 | 34.2 | –
CCCCCCCCCCCCCCCC(=O)N[C@@H](CCC(=O)NCCCC[C@H](NC(=O)[C@H](CC(C)C)NC(=O)[C@H](CCCCN)NC(=O)[C@@H](NC(=O)[C@@H]1CCCN1C(=O)[C@H](NC(=O)[C@H](CC(=O)O)NC(=O)[C@H](CC(C)C)NC(=O)[C@H](CO)NC(=O)[C@H](CC(C)C)NC(=O)[C@@H](NC(=O)[C@@H](N)[C@@H](C)CC)C(C)C)C(C)C)[C@@H](C)O)C(=O)N[C@@H](CCCCN)C(=O)N[C@@H](CCCCN)C(=O)N[C@@H](CC(C)C)C(=O)N[C@@H](CC(C)C)C(=O)N[C@@H](CCCCN)C(=O)N[C@@H](CCC(N)=O)C(=O)N[C@@H](CCC(=O)O)C(=O)N[C@@H](CCCNC(=N)N)C(=O)N[C@@H](CCCCN)C(=O)N[C@@H](CCCNC(=N)N)C(=O)N[C@@H](CCCCN)C(=O)N[C@@H](CCC(=O)O)C(=O)N[C@@H](CCCNC(=N)N)C(=O)N[C@@H](CCC(=O)O)C(=O)N[C@@H](CCCCN)C(=O)N[C@@H](C)C(=O)N[C@@H](CCC(=O)O)C(=O)N[C@@H](CCCCN)C(=O)N[C@@H](C)C(=O)N[C@@H](C)C(=O)N[C@@H](CCCNC(=N)N)C(=O)N[C@H](C(=O)N[C@@H](CC(C)C)C(=O)N[C@@H](CCC(=O)O)C(=O)N[C@@H](CCCNC(=N)N)C(=O)N[C@H](C(N)=O)C(C)C)[C@@H](C)CC)C(=O)O [compound 28] (H-IVLSLD[dV]PTKLK([γGlu-Palmitoyl])KKLLKQERKRKEREKAEKAARILERV-NH2; N-terminus assumed) | 0.14 | > 100 | 8.4 | –
CCCCCCCCCCCCCCCC(=O)N[C@@H](CCC(=O)NCCCC[C@H](NC(=O)[C@H](CC(C)C)NC(=O)[C@H](CCCCN)NC(=O)[C@@H](NC(=O)[C@@H]1CCCN1C(=O)[C@H](NC(=O)[C@H](CC(=O)O)NC(=O)[C@H](CC(C)C)NC(=O)[C@H](CO)NC(=O)[C@H](CC(C)C)NC(=O)[C@@H](NC(=O)[C@@H](N)[C@@H](C)CC)C(C)C)C(C)C)[C@@H](C)O)C(=O)N[C@@H](CCCCN)C(=O)N[C@@H](CCCCN)C(=O)N[C@@H](CC(C)C)C(=O)N[C@@H](CC(C)C)C(=O)N[C@@H](CCCCN)C(=O)N[C@@H](CCC(N)=O)C(=O)N[C@@H](CCC(=O)O)C(=O)N[C@@H](CCCNC(=N)N)C(=O)N[C@@H](CCCCN)C(=O)N[C@@H](CCCNC(=N)N)C(=O)N[C@@H](CCCCN)C(=O)N[C@@H](CCC(=O)O)C(=O)N[C@@H](CCCNC(=N)N)C(=O)N[C@@H](CCC(=O)O)C(=O)NC(C)(C)C(=O)N[C@@H](C)C(=O)N[C@@H](CCC(=O)O)C(=O)N[C@@H](CCCCN)C(=O)N[C@@H](C)C(=O)N[C@@H](C)C(=O)N[C@@H](CCCNC(=N)N)C(=O)N[C@H](C(=O)N[C@@H](CC(C)C)C(=O)N[C@@H](CCC(=O)O)C(=O)N[C@@H](CCCNC(=N)N)C(=O)N[C@H](C(N)=O)C(C)C)[C@@H](C)CC)C(=O)O [compound 29] (H-IVLSLD[dV]PTKLK([γGlu-Palmitoyl])KKLLKQERKRKERE[Aib]AEKAARILERV-NH2; N-terminus assumed) | 0.12 | > 100 | 18.4 | –
CCCCCCCCCCCCCCCC(=O)N[C@@H](CCC(=O)NCCCC[C@H](NC(=O)[C@H](CC(C)C)NC(=O)[C@H](CCCCN)NC(=O)[C@@H](NC(=O)[C@@H]1CCCN1C(=O)[C@H](NC(=O)[C@H](CC(=O)O)NC(=O)[C@H](CC(C)C)NC(=O)[C@H](CO)NC(=O)[C@H](CC(C)C)NC(=O)[C@@H](NC(=O)[C@@H](N)[C@@H](C)CC)C(C)C)C(C)C)[C@@H](C)O)C(=O)N[C@@H](CCCCN)C(=O)N[C@@H](CCCCN)C(=O)N[C@@H](CC(C)C)C(=O)N[C@@H](CC(C)C)C(=O)N[C@@H](CCCCN)C(=O)N[C@@H](CCC(N)=O)C(=O)N[C@@H](CCC(=O)O)C(=O)N[C@@H](CCCNC(=N)N)C(=O)N[C@@H](CCCCN)C(=O)N[C@@H](CCCNC(=N)N)C(=O)N[C@@H](CCCCN)C(=O)N[C@@H](CCC(=O)O)C(=O)N[C@@H](CCCNC(=N)N)C(=O)N[C@@H](CCC(=O)O)C(=O)N[C@@H](CCC(N)=O)C(=O)N[C@@H](C)C(=O)N[C@@H](CCC(=O)O)C(=O)N[C@@H](CCCCN)C(=O)N[C@@H](C)C(=O)N[C@@H](C)C(=O)N[C@@H](CCCNC(=N)N)C(=O)N[C@H](C(=O)N[C@@H](CC(C)C)C(=O)N[C@@H](CCC(=O)O)C(=O)N[C@@H](CCCNC(=N)N)C(=O)N[C@H](C(N)=O)C(C)C)[C@@H](C)CC)C(=O)O [compound 30] (H-IVLSLD[dV]PTKLK([γGlu-Palmitoyl])KKLLKQERKRKEREQAEKAARILERV-NH2; N-terminus assumed) | 0.16 | > 100 | 14.5 | –
CC[C@H](C)[C@H](N)C(=O)N[C@H](C(=O)N[C@@H](CC(C)C)C(=O)N[C@@H](CO)C(=O)N[C@@H](CC(C)C)C(=O)N[C@@H](CC(=O)O)C(=O)N[C@H](C(=O)N1CCC[C@H]1C(=O)N[C@H](C(=O)N[C@@H](CCCCN)C(=O)N[C@@H](CC(C)C)C(=O)N[C@@H](CCCCNC(=O)COCCOCCNC(=O)COCCOCCNC(=O)CC[C@H](NC(=O)CCCCCCCCCCCCCCCCC(=O)O)C(=O)O)C(=O)N[C@@H](CCC(N)=O)C(=O)N[C@H](C(=O)N[C@@H](CC(C)C)C(=O)N[C@@H](CC(C)C)C(=O)N[C@@H](CCCCN)C(=O)N[C@@H](CCC(N)=O)C(=O)N[C@@H](CCC(=O)O)C(=O)N[C@@H](CCCNC(=N)N)C(=O)N[C@@H](CCC(N)=O)C(=O)N[C@@H](CCCCN)C(=O)N[C@@H](CCCCN)C(=O)N[C@@H](CCC(N)=O)C(=O)N[C@@H](CCCNC(=N)N)C(=O)N[C@@H](CCC(=O)O)C(=O)N[C@@H](CCCCN)C(=O)N[C@@H](C)C(=O)N[C@@H](CCCCN)C(=O)N[C@H](C(=O)N[C@@H](CC(N)=O)C(=O)NC(C)(C)C(=O)N[C@@H](CCC(N)=O)C(=O)N[C@H](C(=O)N[C@@H](CC(C)C)C(=O)N[C@@H](C)C(=O)N[C@@H](CCC(N)=O)C(=O)N[C@H](C(N)=O)C(C)C)[C@@H](C)CC)[C@@H](C)O)[C@@H](C)CC)[C@@H](C)CC)C(C)C)C(C)C [compound 88] (H-IVLSLDVPIKLK([AEEA-AEEA-γGlu-C18 diacid])QILLKQERQKKQREKAKTN[Aib]QILAQV-NH2; N-terminus assumed) | 0.68 | > 100 | 2.3 | 25.7
